Experimental data published in patent publication US20250152566A1 (priority 2023, published 2025).
Entries after “also recorded” stand apart in the source; their conditions may differ.

What was measured:
[1] = system: fatigue after SARS-CoV-2 infection; assay: Double-blind withdrawal trial (verum/placebo, 3 days each) in pat. 2.1 and 2.2; format: in vivo, human; conditions: at start of the double-blind trial, already on Amifampridine (4 times 5 mg per day)
Protocol: (§1) Pyridine-3,4-diamine Amifampridine (formulation as finished drug) was administered in the below-mentioned application examples. As part of the double-blind study, capsules that look the same with Amifampridine or placebo were prepared blind by a pharmacy, whereby only the pharmacy knew which capsules contained active ingredient or placebo.
In the case of pat. 2.1 and 2.2, a long-term medication with 20 mg of Amifampridine each per day were required for reconvalescence and thus offered prerequisites for a double-blind withdrawal trial for 3 days each.
Pat. 2.1 with verum on days 1-3, followed by placebo on days 4-6:
Pat. (pat. 2.1) with Bell score 90 already started with Amifampridine, as described above, and continued this with blister with […] each day, one drawer with capsules for 3 days with 4 times 5 mg of Amifampridine each. The dosage for 3 days each was placebo with 4 times placebo capsules each for patient 1 and 2 (verum and placebo).
Pat. 2.1: verum on days 1-3, followed by placebo on days 4-6: reduction of the Bell score to minimally 30 in the placebo phase, increased sleep time to 10.5 hours (FIG. 3: pat. 2.1, Bell score (line with squares with side lines of the squares parallel and perpendicular to the main line; sleep time/24 h (line with smaller squares, tips of squares point upwards/downwards as well as to the right and left). […]

[2] = system: fatigue symptomatology in post-COVID syndrome (PCS); assay: Further study (case series, pat. 1 to 5): Bell score and need for sleep in post-COVID syndrome under Amifampridine; format: in vivo, human
Text: (§2) The Bell-score (or scale) is a measure of the impediment in the case of ME & CFS. It is also suitable for long COVID patients. The Bell scale is individual because each patient has a different stress tolerance and suffering from severe symptoms at rest can be relatively different. • 100 No symptoms at rest; no symptoms with physical stress; a normal overall activity level; able to work full-time without any difficulties. • 90 No symptoms at rest; mild symptoms with physical and mental stress; a normal overall activity level; able to work full-time without any difficulties. • 80 Mild symptoms at rest; the symptoms intensify due to stress; a slight performance limitation noticeable only with activities, which are strenuous; able to work full-time in jobs, which require exertion of force, with difficulties. • 70 Mild symptoms at rest; significant limitations noticeable in the daily activities; the functional state is a total of about 90% of the norm—with the exception of activities, which require an exertion of force; able to work full-time with difficulties. • 60 Mild symptoms at rest; significant limitations in the daily activities; the functional state is a total of about 70%-90% of the norm; unable to work a full-time job if physical work is required there; however, able to work full-time if it is light work and the hours of work can be handled flexibly. • 50 Moderate symptoms at rest; moderate to severe symptoms in response to physical stress or activity; the functional state is reduced to 70% of the norm; unable to perform strenuous work, but able to perform light work or desk work for 4-5 hours daily, whereby rest periods are required. • 40 Moderate symptoms at rest; moderate to severe symptoms in response to stress or activity; the functional state is reduced to 50%-70% of the norm; unable to perform strenuous work, but able to perform light work or desk work for 3-4 hours daily, whereby rest periods are required. • 30 Moderate to severe symptoms at rest; severe symptoms in response to any stress or activity; the functional state is reduced to 50% of the norm; generally housebound; unable to perform strenuous work, but able to perform light work or desk work for 2-3 hours daily, whereby rest periods are required. • 20 Moderate to severe symptoms at rest; severe symptoms in response to any stress or activity; the functional state is reduced to 30%-50% of the norm, except for rare exceptions, unable to leave the house; bedridden for the majority of the day; unable to concentrate for more than one hour per day. • 10 Severe symptoms at rest; bedridden most of the time; leaving the house is not possible; significant cognitive symptoms, which make it impossible to concentrate. • 0 Constant severe symptoms; always bedridden; unable to perform the simplest care measures.
A further study was performed on a patient group. A reduced fatigue symptomatology was determined in this study as well in the case of post-COVID syndrome under Amifampridine.
The prevalence of a post-COVID syndrome (PCS) is 10-15% after SARS-CoV-2 infection, a large variety of functional symptoms appear in addition to specific organ diseases, predominantly a fatigue symptomatology. The latter is characterized by persistent tiredness, weakness, cognitive deficits as well as increased need for sleep. […] The Bell score, which focusses on the limitation of the vigilance, physical endurance and job, was used for the evaluation. • In the case of pat. 1 of the further study, a previous Zn. EBV infection is known, otherwise no internal or neurological preexisting conditions. Fluctuating fatigue symptomatology after SARS-CoV-2 infection in May of 2022 with a Bell score between 20 and 40, increased need for sleep with 12 hours/24 h. After taking 5 mg of Amifampridine three times within 24 h (h: hours), there was complete convalescence with a Bell score of 100, the need for sleep reduced to 7 hours/24 h. Withdrawal trials ended in a fatigue again. • In the case of pat. […]

[3] = system: LEMS patients; conditions: cited from earlier work
[4] = system: fatigue symptomatology after SARS-CoV-2 infection; assay: Patients 2.1 to 2.5: Bell score and cumulative sleep time in 24 h with and without Amifampridine; format: in vivo, human; conditions: for Bell score, long term: long-term medication, daily dose 20 mg to 25 mg, 5 mg each at an interval of 4 hours
Text: as §2
The following dosages of patients 2.1 to 2.5 and the changed Bell score values as well as the need for sleep in hours are illustrated in FIGS. 1 and 2 (FIG. 1 Bell-score with and without Amifampridine, patients 2.1 to 2.5, FIG. 2: cumulative sleep time in 24 h).
In the case of pat. 2.1, a psychotherapist without internal or neurological preexisting conditions, fluctuating fatigue symptomatology with a Bell score between 20 and 40 as well as increased need for sleep with 12 hours/24 h occurred after SARS-CoV-2 infection in May of 2022. After taking 5 mg of Amifampridine once, there was complete convalescence with a Bell score of 100, the need for sleep reduced to 7 hours/24 h.
After withdrawal trials (three days no Amifampridine) with recurrent fatigue, a long-term medication with a daily dose of 20 mg to 25 mg of 5 mg each at an interval of 4 hours occurred, whereby the Bell score is permanently from 90 to 100. This Bell score value can already be maintained for three quarters of a year. Taken from morning to night before going to sleep.
In the case of pat. […]

[5] = system: fatigue symptomatology after COVID infection; assay: Off-label therapy case descriptions (cases 1 to 3) of fatigue symptomatology after COVID infection; format: in vivo, human
Protocol: as §1
The following laboratory and ECG controls for detecting substance-associated complications were inconspicuous.
In case 3, a patient is described, who suffered from fatigue symptomatology with a need for sleep of up to 2×9 hours per day, after being infected with COVID twice.

[6] = system: MS patients; conditions: described in the literature; cited from earlier work
[7] = pat. 5 (LEMS), 5 mg three or four times as daily dose
[8] = pat. 2.5 (LEMS), 60 mg, later 70 mg per day (3 times 20 mg, optionally additional 5 mg)
[9] = pat. 2.5 (LEMS), initial administration of 3×5 mg

Nc1ccncc1N [Amifampridine, Pyridine-3,4-diamine]
Bell score [1]: 90 | need for sleep ([2]; pat. 1, after 5 mg three times within 24 h, before 12): 7 hours/24 h | Bell score ([2]; pat. 1, after 5 mg three times within 24 h, before 20 to 40): 100 | vigilance ([2]; pat. 2, after 5 mg three times): unlimited vigilance | need for sleep ([2]; pat. 2, after 5 mg three times, before 12): 7.5 hours/24 h | Bell score ([2]; pat. 2, after 5 mg three times, before 40): 100 | duration of the effect ([2]; pat. 3, after taking 5 mg): about 36 hours | need for sleep ([2]; pat. 3, after taking 5 mg, before 11 to 12 hours/24 h): 7 to 9 h | Bell score ([2]; pat. 3, after taking 5 mg, before 40): 100 | Bell score ([2]; pat. 4 (post-COVID myocarditis), 5 mg three times within 24 h, before 20): 50 | need for sleep ([2]; pat. 4, 5 mg three times within 24 h, before 12 to 14): 8 to 10 hours/24 h | fatigue [2, 7]: the fatigue ceased | muscular endurance [2, 7]: improved muscular endurance | need for sleep ([2]; pat. 5 (LEMS), 5 mg three or four times as daily dose, before 16 to 18): 8-9 hours/24 h | co-indicated / coincident fatigue of LEMS patients ([3]; LEMS patients): improvement of a co-indicated fatigue | need for sleep ([4]; pat. 2.1, after taking 5 mg once, before 12): 7 hours/24 h | Bell score ([4]; pat. 2.1, after taking 5 mg once, before 20 to 40): 100 | Bell score, long term ([4]; pat. 2.1, held for three quarters of a year): 90 to 100 | duration of the effect ([4]; pat. 2.2, after taking 5 mg): about 36 hours | need for sleep ([4]; pat. 2.2, after taking 5 mg, before 11-12 hours/24 h): 7 to 9 h | Bell score ([4]; pat. 2.2, after taking 5 mg, before 40): 80 | Bell score, long term ([4]; pat. 2.2, past month): 90 to 100 | vigilance ([4]; pat. 2.3, after 5 mg): unlimited vigilance | need for sleep ([4]; pat. 2.3, after 5 mg, before 12): 7.5 hours/24 h | Bell score ([4]; pat. 2.3, after 5 mg, before 40): 100 | Bell score with regard to fatigue [4, 8]: 70 to 80 | Bell score with regard to the muscular deficits [4, 8]: approx. 20 | fatigue [4, 9]: the fatigue ceased | muscular endurance [4, 9]: improved muscular endurance | Bell score ([4]; pat. 2.5 (LEMS), initial administration of 3×5 mg, before 10): 80 | need for sleep ([4]; pat. 2.5 (LEMS), initial administration of 3×5 mg, before 16-18): 8-9 hours/24 h | Bell score ([4]; patient 2.4 (post-COVID myocarditis), after 5 mg, before 20): 50 | need for sleep ([4]; patient 2.4, after 5 mg, before 12-14): 8 to 10 hours/24 h | muscular deficits ([5]; case 1): immediate improvement of the muscular deficits | serious fatigue symptomatology existing since the COVID infection ([5]; case 1, need for sleep or rest up to 20 hours per day before): sudden improvement | laboratory and ECG controls for detecting substance-associated complications ([5]; case 2): inconspicuous | ability to concentrate ([5]; case 2, 5 mg of Amifampridine): complete restitution of the ability to concentrate | assignable side effects ([5]; case 2, 5 mg of Amifampridine): Slight perioral paresthesias | fatigue symptomatology ([5]; case 2, 5 mg of Amifampridine): complete improvement of the fatigue symptomatology | existing fatigue ([5]; case 2, daily dose of 3×5 mg): ceases completely | ability to concentrate ([5]; case 3, 5 mg of Amifampridine): sudden improvement of the ability to concentrate | side effects ([5]; case 3, 5 mg of Amifampridine): Transient perioral paresthesias with very low intensity | need for sleep and rest ([5]; case 3, 5 mg of Amifampridine, before up to 2×9 hours per day): physiological need for sleep and rest

Nc1ccncc1 [Fampridine]
accompanying fatigue symptomatology in MS patients [6]: improvement of an accompanying fatigue symptomatology; also recorded: favorable effects

Amifampridine Phosphate
coincident fatigue with LEMS ([3]; as phosphates, 20 to 80 mg as daily doses, J Clin Neuromuscul Dis. 2019): Improvement of a coincident fatigue
